± gives the expanded uncertainty stated by the source. Values belong to the compound of their own block, whether it stands above or below them.
Conditions: Liquid, Closed cell (Static) method

vapor or sublimation pressure (473.46 K): 1500 ± 10 kPa
Structure (SMILES): CCC(C)O (stereo not drawn) [butan-2-ol]

vapor or sublimation pressure (462.75 K): 1500 ± 10 kPa
Structure (SMILES): CCOC(C)=O [ethyl acetate]

vapor or sublimation pressure (436.08 K): 1500 ± 10 kPa
Structure (SMILES): COC(C)=O [methyl ethanoate]

Source: the NIST ThermoML archive (doi:10.1021/acs.jced.5b00773)
